Where two headings read alike, the source gives them in different places.
Tests used:
androgen receptor = androgen receptor (Homo sapiens, UniProt P10275); assay: Assay for binding affinity to androgen receptor ([3H]methyltrienolone radioligand, cell cytosol); details: binding to the androgen receptor, 1 nM [3H]methyltrienolone, 24 hr at 4° C.
Experimental: Fractions of cell cytosol (106 cell/point) were incubated for 24 hr at 4° C. with 1 nM [^3H]methyltrienolone in the absence or presence of the test compound in a buffer containing 25 mM Hepes-Tris (pH 7.4), 1 mM EDTA, 10 mM Na2MoO4, 2 mM DTT, 5 µM triamcinolone acetonide, and 10% glycerol. Nonspecific binding was determined in the presence of 1 μM testosterone. Following incubation, the samples were filtered rapidly under vacuum through glass fiber filters (GF/B, Packard) presoaked with 0.3% PEI and rinsed several times with ice-cold 50 mM Tris-HCl using a 96-sample cell harvester (Unifilter, Packard). The filters were dried then counted for radioactivity in a scintillation counter (Topcount, Packard) using a scintillation cocktail (Microscint 0, Packard). The results are expressed as a percent inhibition of the control radioligand specific binding. The standard reference compound is testosterone, which is tested in each experiment at several concentrations to obtain a competition curve from which its IC50 is calculated.

[1] = tested on: T-Rex 293 cell line SC3 cells having increased expression of androgen receptor protein; assay: Cellular growth inhibition, T-Rex 293 SC3 cells with increased androgen receptor expression (doxycycline), CellTiter-Glo; format: cell-based; details: T-Rex 293 SC3 cells with increased androgen receptor expression (exposed to 10 ng/mL doxycycline), 72 hours, CellTiter-Glo; read-out: GI50
Outline: (§1)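 SC3, a T-Rex 293 clone with doxycycline-inducible wild-type androgen receptor, was seeded in phenol red-free DMEM with 10% charcoal-dextran FBS, with or without 10 ng/mL doxycycline. Compound added at 24 h (0.5% DMSO) for 72 h at 37° C. CellTiter-Glo 2.0 luminescence; GI50 from four-parameter fit.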

[2] = tested on: T-Rex 293 cell line SC3 cells lacking increased expression of androgen receptor protein; assay: Cellular growth inhibition, T-Rex 293 SC3 cells lacking increased androgen receptor expression (no doxycycline), CellTiter-Glo; format: cell-based; details: T-Rex 293 SC3 cells lacking increased androgen receptor expression (not exposed to doxycycline), 72 hours, CellTiter-Glo; read-out: GI50
Outline: as §1

VCaP cells = assay: Cellular growth inhibition assay for VCaP cells, CellTiter-Glo; format: cell-based, human; details: VCaP cells, 72 hours, CellTiter-Glo, read-out: GI50
Outline: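 GI50 values come from four-parameter curve fits of luminescence data normalized to a zero baseline. Compound, in medium with 0.5% DMSO, was added one day after plating and left for 72 h before CellTiter-Glo 2.0 addition.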

T47D cells = assay: Cellular growth inhibition assay for T47D cells, CellTiter-Glo; format: cell-based, human; details: 72 hours treatment, CellTiter-Glo 2.0
Outline: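 Growth inhibition as GI50, fitted with four parameters to CellTiter-Glo luminescence after 72 h of compound exposure (0.5% DMSO). Cells were T47D, grown in insulin-supplemented (0.2 units/mL) DMEM with 10% FBS and treated one day post-seeding.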

progesterone receptor = progesterone receptor (Homo sapiens, UniProt P06401); assay: PR Human Progesterone NHR Binding (Agonist Radioligand) Assay, [3H]progesterone, T47D cytosol; details: 0.5 nM [3H]progesterone, T47D cytosolic fractions, 1 hour at 4° C., legend words it as Kd
Experimental: Compounds were tested using the PR Human Progesterone NHR Binding (Agonist Radioligand) Assay, Cerep at Eurofins Discovery using a modified version of the protocol from Sarup et al. (Cancer Res 1988; 48:5071-5078). Briefly, cytosolic fractions of T47D cells were incubated with 0.5 nM [^3H]progesterone for 1 hour at 4° C. in the absence or presence of the test compound. Nonspecific binding was determined in the presence of 1 μM promegestone. Reactions were subjected to scintillation counting. Results are expressed as a percent inhibition of the control radioligand specific binding.

androgen receptor, sequence (P10275 whole entry, looked up): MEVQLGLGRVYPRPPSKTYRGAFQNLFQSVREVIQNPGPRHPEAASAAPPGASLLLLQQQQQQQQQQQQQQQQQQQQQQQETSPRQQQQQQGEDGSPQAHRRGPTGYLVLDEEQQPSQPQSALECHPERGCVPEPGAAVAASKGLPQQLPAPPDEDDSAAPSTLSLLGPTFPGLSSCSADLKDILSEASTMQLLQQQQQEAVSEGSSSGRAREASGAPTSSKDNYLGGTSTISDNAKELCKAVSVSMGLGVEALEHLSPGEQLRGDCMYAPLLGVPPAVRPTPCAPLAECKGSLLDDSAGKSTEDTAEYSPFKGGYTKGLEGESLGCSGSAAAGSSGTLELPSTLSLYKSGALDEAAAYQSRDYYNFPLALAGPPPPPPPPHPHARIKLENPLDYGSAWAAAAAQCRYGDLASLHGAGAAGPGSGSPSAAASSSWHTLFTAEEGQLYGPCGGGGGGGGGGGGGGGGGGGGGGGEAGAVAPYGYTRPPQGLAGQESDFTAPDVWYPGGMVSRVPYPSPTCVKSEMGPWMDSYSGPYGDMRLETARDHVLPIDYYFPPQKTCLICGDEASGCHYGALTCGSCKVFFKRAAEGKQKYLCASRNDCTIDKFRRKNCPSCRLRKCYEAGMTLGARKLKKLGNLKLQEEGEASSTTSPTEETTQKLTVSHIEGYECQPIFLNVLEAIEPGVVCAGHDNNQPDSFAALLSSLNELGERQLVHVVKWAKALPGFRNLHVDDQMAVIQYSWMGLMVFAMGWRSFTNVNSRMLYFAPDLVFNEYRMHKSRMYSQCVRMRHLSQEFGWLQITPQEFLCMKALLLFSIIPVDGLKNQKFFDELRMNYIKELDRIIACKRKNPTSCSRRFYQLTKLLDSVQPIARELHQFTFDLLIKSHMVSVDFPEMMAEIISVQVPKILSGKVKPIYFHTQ
progesterone receptor, sequence (P06401 whole entry, looked up): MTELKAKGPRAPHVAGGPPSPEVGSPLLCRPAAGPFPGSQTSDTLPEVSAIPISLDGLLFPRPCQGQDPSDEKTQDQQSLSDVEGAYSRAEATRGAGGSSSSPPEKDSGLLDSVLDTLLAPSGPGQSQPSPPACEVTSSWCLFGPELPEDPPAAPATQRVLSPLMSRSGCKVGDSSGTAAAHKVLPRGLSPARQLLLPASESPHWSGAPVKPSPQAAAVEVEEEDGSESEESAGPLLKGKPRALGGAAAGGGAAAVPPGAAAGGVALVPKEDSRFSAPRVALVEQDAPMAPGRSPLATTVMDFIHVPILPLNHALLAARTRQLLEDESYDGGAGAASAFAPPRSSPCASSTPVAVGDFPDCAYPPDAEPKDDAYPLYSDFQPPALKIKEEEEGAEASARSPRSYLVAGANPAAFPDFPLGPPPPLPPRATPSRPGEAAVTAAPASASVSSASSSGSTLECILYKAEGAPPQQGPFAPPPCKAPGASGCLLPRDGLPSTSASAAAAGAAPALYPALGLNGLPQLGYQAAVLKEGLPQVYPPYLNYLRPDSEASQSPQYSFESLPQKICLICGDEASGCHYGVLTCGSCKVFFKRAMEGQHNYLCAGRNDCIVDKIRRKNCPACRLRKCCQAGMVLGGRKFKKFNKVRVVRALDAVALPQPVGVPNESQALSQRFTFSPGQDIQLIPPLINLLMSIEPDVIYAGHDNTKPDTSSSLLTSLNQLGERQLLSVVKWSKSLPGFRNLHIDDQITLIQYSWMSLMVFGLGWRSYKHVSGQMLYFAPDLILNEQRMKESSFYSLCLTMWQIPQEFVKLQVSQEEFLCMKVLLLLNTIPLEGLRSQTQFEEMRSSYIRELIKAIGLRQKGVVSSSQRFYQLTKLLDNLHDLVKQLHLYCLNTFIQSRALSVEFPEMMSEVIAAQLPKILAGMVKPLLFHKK

Cn1cc(-c2cc(C(C)(C)O)ccc2Oc2ccc(CCC3CCN(c4cnc(C(=O)N[C@H]5CC[C@H](Oc6ccc(C#N)c(Cl)c6)CC5)cn4)CC3)cc2)c2cc[nH]c2c1=O [I-119] was tested. Which Kd (androgen receptor) did it give?
The Kd was 500 to 2500 nM.

And the GI50 [1]?
Its GI50 is < 500 nM.

And the GI50 [2]?
Its GI50 is < 500 nM.

And the GI50 (VCaP cells)?
Its GI50 is < 500 nM.

And the GI50 (T47D cells)?
Its GI50 is < 500 nM.

Which results are given for CCS(=O)(=O)Cc1ccc(Oc2cccc(OCCOC3CCN(c4cnc(C(=O)N[C@H]5CC[C@H](Oc6ccc(C#N)c(Cl)c6)CC5)cn4)CC3)c2F)c(-c2cn(C)c(=O)c3[nH]ccc23)c1 [I-28]?
Kd (androgen receptor): 50 to 500 nM; GI50 [1]: < 500 nM; GI50 [2]: < 500 nM; GI50 (VCaP cells; Homo sapiens): < 500 nM; Ki (progesterone receptor): 500 to 2500 nM

How did the Kd (androgen receptor) turn out when CCS(=O)(=O)Nc1ccc(Oc2cccc(OCCOC3CCN(c4ccc(C(=O)N[C@H]5CC[C@H](Oc6ccc(C#N)c(Cl)c6)CC5)nc4)CC3)c2)c(-c2cn(C)c(=O)c3[nH]ccc23)c1 [I-9, N-[4-(3-chloro-4-cyano-phenoxy)cyclohexyl]-5-[4-[2-[3-[4-(ethylsulfonylamino)-2-(6-methyl-7-oxo-1H-pyrrolo[2,3-c]pyridin-4-yl)phenoxy]phenoxy]ethoxy]-1-piperidyl]pyridine-2-carboxamide] was run?
The Kd was 500 to 2500 nM.

And the GI50 [1]?
Its GI50 is < 500 nM.

What about the GI50 [2] of the same molecule?
The GI50 was < 500 nM.

What about the GI50 (VCaP cells; Homo sapiens) of the same molecule?
The GI50 was < 500 nM.

For CCS(=O)(=O)Nc1ccc(Oc2cccc(OCCOC3CCN(c4ccc(C(=O)N[C@H]5CC[C@H](Oc6ccc(C#N)c(Cl)c6)CC5)cn4)CC3)c2)c(-c2cn(C)c(=O)c3[nH]ccc23)c1 [I-7, N-[4-(3-chloro-4-cyano-phenoxy)cyclohexyl]-6-[4-[2-[3-[4-(ethylsulfonylamino)-2-(6-methyl-7-oxo-1H-pyrrolo[2,3-c]pyridin-4-yl)phenoxy]phenoxy]ethoxy]-1-piperidyl]pyridine-3-carboxamide], which Kd (androgen receptor) is on record?
The Kd was 500 to 2500 nM.

What about the GI50 [1] of the same molecule?
The GI50 was < 500 nM.

What about the GI50 [2] of the same molecule?
The GI50 was < 500 nM.

And the GI50 (VCaP cells; Homo sapiens)?
The GI50 was < 500 nM.

Which results are given for Cn1cc(-c2cc(C(C)(C)O)ccc2Oc2ccc(C3CN(c4ccc(C(=O)N[C@H]5CC[C@H](Oc6ccc(C#N)c(Cl)c6)CC5)nn4)C3)cc2)c2cc[nH]c2c1=O [I-104]?
Kd (androgen receptor): < 50 nM; GI50 [1]: < 500 nM; GI50 [2]: 500 to 1500 nM; GI50 (VCaP cells): < 500 nM; GI50 (T47D cells): < 500 nM
